In patent US20190314361A1 (Athenex Therapeutics Limited, priority 2018, published 2019):
Converted amounts (≈) assume the structure as drawn. “And” between values parts separate entries of the source, which are not always exact repeats. Equal entries are not always repeated. Where two headings read alike, the source gives them in different places.

What was measured:
[1] = Cardiovascular safety pharmacology in dogs; assay type: in vivo, dog; conditions: oral administration
[2] = CNS safety pharmacology study in rats; assay type: in vivo, rat; conditions: oral administration
SVRbag4 cells = experiment: In vitro cytotoxicity (MTT) in SVRbag4 cells; assay type: cell-based, mouse; conditions: SVRbag4, 72 hours, Mean ± SD
Protocol: (§1) Three independent experiments of two replicates were completed. A 10 μL aliquot of 3-(4,5-dimethylthiazol-2-yl)-2,5-diphenyltetrazolium bromide (MTT) solution (5 mg/mL in PBS) was added to each well and incubated at 37° C. for 2 hours. The culture medium was removed followed by addition of 100 μL of DMSO to each well. The absorbance in each well was measured at 540 nm using a SpectraMax microplate reader. A sigmoid Emax model using nonlinear regression (Equation 1) with least squares fit was used to estimate Emax and GI50 values using GraphPad Prism 6 for each experiment:
(§2) The average Emax and GI50 values and standard deviated from three individual experiments were calculated and reported. R-squared of all curve fits exceeded 0.9.

MS1 cells = experiment: In vitro cytotoxicity (MTT) in MS1 cells; assay type: cell-based, mouse; conditions: MS1, 72 hours, Mean ± SD
Protocol: as §1, §2

[3] = Paclitaxel pharmacokinetics in dogs after single oral dose with Compound A; assay type: in vivo, dog
[4] = tested on: NCI-H460 lung human cancer cell line; conditions: Athymic nude mice, paclitaxel alone 24 mg/kg IV, every other day for 4 doses
Protocol: (§3) In these studies, tumor inhibition rate (IR %) was calculated as ([1−relative tumor growth in treated group/relative tumor growth in control group]×100). Tumor regression was calculated as (Mean Tumor WeightEnd of treatment/Mean tumor WeightBeginning of treatment)×100. Therefore, a value <100% for tumor regression indicates a decrease in tumor weight over the course of the study and a value >100% indicates an increase in tumor weight. Tumor growth delay was calculated as the median number of days to reach two tumor mass doublings.

[5] = tested on: MDA-MB-231 mammary human cancer cell line; conditions: NCr-nu (athymic) mice, paclitaxel alone 18 mg/kg IV, every other day for 4 doses
Protocol: as §3

[6] = tested on: HT-29 colon human cancer cell line; conditions: NU/Nu Balb/C mice
Protocol: as §3

[7] = tested on: SKOV-3 ovarian human cancer cell line; conditions: NU/Nu Balb/C mice, paclitaxel alone 30 mg/kg IV, 1x weekly for 3 weeks
Protocol: as §3

[8] = tested on: SK-OV-3 ovarian human cancer cell line; conditions: NCr-nu (athymic) mice, paclitaxel alone 18 mg/kg IV, every other day for 4 doses
Protocol: as §3

[9] = tested on: A431 vaginal epidermoid human cancer cell line; conditions: NU/Nu Balb/C mice, paclitaxel alone 30 mg/kg IV, 1x weekly for 3 weeks
Protocol: as §3

[10] = dogs
SVRA221a cells = experiment: In vitro cytotoxicity (MTT) in SVRA221a cells; assay type: cell-based, mouse; conditions: 72 hours, Mean ± SD
Protocol: as §1, §2

[11] = tested on: tubulin in MS1, SVRA221a, and SVRbag4 cell lines; experiment: Immunofluorescence microscopy of tubulin disruption; assay type: cell-based, mouse; conditions: SVRbag4 treated with 1-100 nM paclitaxel for 3 hours
Protocol: Coverslips (22-mm) were pre-coated with rat tail collagen for 1 hour then seeded with cells in 6-well plates for 24 hours before treatment. […] After blocking with 2% BSA in PBS for 30 min, cells were incubated with anti α-tubulin antibody (Sigma 6199) diluted in blocking buffer (2% BSA in PBS) for 1.5 hours at room temperature. Cells were washed three times with PBS and incubated with […] anti-Mouse IgG (Invitrogen) for 1 hours at room temperature. Following three PBS washes, coverslips were mounted on glass slides in ProLong antifade reagent (Invitrogen). Fluorescent images were captured using a Nikon TE2000-E inverted microscope for two independent experiments.

[12] = Paclitaxel pharmacokinetics in rats after single oral dose with Compound A; assay type: in vivo, rat
[13] = for AUCinf / AUClast / CL/F / Cmax / MRTinf / Vd/F / t1/2 / CLR: in vivo, po
[14] = human; for AUC0-24 / Cmax: range across dose levels, 2 consecutive daily oral doses
Protocol: A 2-part study was conducted in subjects with advanced/metastatic or recurrent gastric cancer. […] In some cases, an additional 15 mg tablet of Compound A on Day 2 was given in each dosing week. A total of 56 subjects enrolled in this study: 10 subjects with advanced malignant tumors in Part 1 and 46 subjects with advanced gastric cancer in Part 2.

HMEC-1 cells = experiment: In vitro cytotoxicity (MTT) in HMEC-1 cells; assay type: cell-based, human; conditions: HMEC-1, 72 hours, Mean ± SD
Protocol: as §1, §2

[15] = Mus musculus, medium pre-supplemented with 1 μM Compound A
[16] = single oral dose paclitaxel 2 mg/kg with Compound A
[17] = single oral dose paclitaxel 4 mg/kg with Compound A
[18] = single oral dose paclitaxel 6 mg/kg with Compound A
[19] = Fasted, single oral dose paclitaxel 6 mg/kg with Compound A 3 mg/kg
[20] = Fed, single oral dose paclitaxel 6 mg/kg with Compound A 3 mg/kg
[21] = single oral dose paclitaxel 5 mg/kg with Compound A
[22] = single oral dose paclitaxel 10 mg/kg with Compound A
[23] = single oral dose paclitaxel 20 mg/kg with Compound A
[24] = single oral dose paclitaxel 30 mg/kg with Compound A
[25] = single oral dose paclitaxel 40 mg/kg with Compound A
[26] = single oral dose paclitaxel 50 mg/kg with Compound A

## COc1cc2c(cc1OC)CN(CCc1ccc(-n3nnc(-c4cc(OC)c(OC)cc4NC(=O)c4cc(=O)c5ccccc5o4)n3)cc1)CC2 [Compound A]
[1]
  Effect on PR and QRS intervals: absence
[2]
  Effect on body temperature: absence

## CC(=O)O[C@H]1C(=O)[C@@]2(C)[C@H]([C@H](OC(=O)c3ccccc3)[C@]3(O)C[C@H](OC(=O)[C@H](O)[C@@H](NC(=O)c4ccccc4)c4ccccc4)C(C)=C1C3(C)C)[C@]1(OC(C)=O)CO[C@@H]1C[C@@H]2O [Paclitaxel, 5,20-Epoxy-1,2,4,7,10-13-hexahydroxytax-11-en-9-one-4,10-diacetate 2-benzoate 13-ester with (2R,3S)—N-benzoyl-3-phenylisoserine]
SVRbag4 cells; [15]
  GI50: 3.9 ± 1 ng/mL (≈ 4.57 nM)
SVRbag4 cells
  Emax (% inhibition): 99 ± 1.4 % inhibition
MS1 cells
  Emax (% inhibition): 93 ± 4.5 % inhibition
MS1 cells; Mus musculus, MS-1, medium pre-supplemented with 1 μM Compound A
  GI50: 1.8 ± 0.36 ng/mL (≈ 2.11 nM)
[3]; [16]
  AUClast Paclitaxel: 413 ng·h/mL
  Tmax Paclitaxel: 0.5 h
[3]; [17]
  AUClast Paclitaxel: 1331 ng·h/mL
  Tmax Paclitaxel: 0.7 h
[3]; [18]
  AUClast Paclitaxel: 2123 ng·h/mL
  Tmax Paclitaxel: 0.5 h
[4]
  Effect: growth delay: 16.3 days
[5]
  Effect: growth delay: >55.9 days
[6]; paclitaxel alone 20 mg/kg IV every 4 days for 4 doses, >100% = increase in tumor weight
  Effect: tumor regression: 163.09% tumor
[6]; paclitaxel alone 25 mg/kg IP every 4 days for 4 doses
  Effect: tumor inhibition rate (IR %): 65.82 IR %
[7]
  Effect: tumor inhibition rate (IR %): 72.79 IR %
[8]
  Effect: growth delay: 43.8 days
[9]
  Effect: tumor inhibition rate (IR %): 45.41 IR %
[10]; [19]
  AUClast: 1599.8 ± 416.5 ng·h/mL
  CL/F: 4.2 ± 1.2 L/h
  Tmax: 0.5 ± 0.0 h
  t1/2: 9.4 ± 0.3 h
[10]; [20]
  AUClast: 849.1 ± 119.9 ng·h/mL
  CL/F: 6.4 ± 1.3 L/h
  Cmax: 299.0 ± 54.6 ng/mL
  Tmax: 0.7 ± 0.2 h
  t1/2: 9.9 ± 2.7 h
[10]; orally administered paclitaxel
  Paclitaxel Cmax and AUC, fasted group as compared to fed group: ~2 fold
SVRA221a cells
  Emax (% inhibition): 96 ± 1.1 % inhibition
SVRA221a cells; [15]
  GI50: 1.8 ± 1 ng/mL (≈ 2.11 nM)
[11]
  concentration at which condensed and rounded morphology and polymerization of microtubules start: 5-10 nM and 4.2-8.5 ng/mL
[12]; [21]
  AUClast Paclitaxel: 333 ng·h/mL
  Cmax Paclitaxel: 103 ng/mL
  Tmax Paclitaxel: 0.6 h
[12]; [22]
  AUClast Paclitaxel: 1027 ng·h/mL
  Cmax Paclitaxel: 356 ng/mL
  Tmax Paclitaxel: 0.7 h
[12]; [23]
  AUClast Paclitaxel: 3009 ng·h/mL
  Cmax Paclitaxel: 852 ng/mL
  Tmax Paclitaxel: 1.2 h
[12]; [24]
  AUClast Paclitaxel: 6638 ng·h/mL
  Cmax Paclitaxel: 1761 ng/mL
  Tmax Paclitaxel: 1.2 h
  t1/2 Paclitaxel: 6.0 h
[12]; [25]
  AUClast Paclitaxel: 11052 ng·h/mL
  Cmax Paclitaxel: 2488 ng/mL
  Tmax Paclitaxel: 1.5 h
  t1/2 Paclitaxel: 5.5 h
[12]; [26]
  AUClast Paclitaxel: 13124 ng·h/mL
  Cmax Paclitaxel: 3067 ng/mL
  Tmax Paclitaxel: 1.4 h
  t1/2 Paclitaxel: 5.3 h
[13]; 24 subjects with advanced solid cancer, oral paclitaxel 60 to 420 mg/m^2 on days 1, 8, 15 of 28-day cycle with Compound A
  MTD: not reached
[13]; human, 60 mg/m2
  AUCinf: 727.1 ng·h/mL
  AUClast: 584.1 ng·h/mL
  CL/F: 178.4 L/h
  Cmax: 149.6 ng/mL
  MRTinf: 28.6 h
  Vd/F: 9128.7 L
  t1/2: 32.1 h
[13]; human, 120 mg/m2
  AUCinf: 1840.1 ng·h/mL
  AUClast: 1611.1 ng·h/mL
  CLR: 3.0 L/h
  MRTinf: 17.0 h
  Vd/F: 4036.0 L
[13]; human, 180 mg/m2
  AUCinf: 1985.0 ng·h/mL
  AUClast: 1673.9 ng·h/mL
  CL/F: 173.4 L/h
  CLR: 1.8 L/h
  Cmax: 432.0 ng/mL
  MRTinf: 21.9 h
  Vd/F: 6030.7 L
  t1/2: 24.4 h
[13]; human, 240 mg/m2
  AUCinf: 2971.2 ng·h/mL
  AUClast: 2547.4 ng·h/mL
  CL/F: 147.6 L/h
  CLR: 2.4 L/h
  Cmax: 509.6 ng/mL
  MRTinf: 23.4 h
  Vd/F: 6011.5 L
  t1/2: 25.7 h
[13]; human, 300 mg/m2
  AUCinf: 3481.1 ng·h/mL
  AUClast: 3135.0 ng·h/mL
  CLR: 2.0 L/h
  MRTinf: 16.2 h
  Vd/F: 4927.3 L
[13]; human, 360 mg/m2
  AUCinf: 2851.7 ng·h/mL
  AUClast: 2512.1 ng·h/mL
  CL/F: 228.7 L/h
  CLR: 7.3 L/h
  Cmax: 655.0 ng/mL
  MRTinf: 18.7 h
  Vd/F: 6837.8 L
  t1/2: 20.8 h
[13]; human, 420 mg/m2
  AUCinf: 3731.5 ng·h/mL
  AUClast: 3407.1 ng·h/mL
  CL/F: 244.9 L/h
  CLR: 2.9 L/h
  Cmax: 707.5 ng/mL
  MRTinf: 14.7 h
  Vd/F: 7175.1 L
  t1/2: 19.9 h
[13]; human, range over oral paclitaxel doses 60 to 420 mg/m^2 with Compound A
  T1/2: 19.9 to 32.1 h
[14]; in vivo, po
  Overall exposure on Day 2, higher than Day 1: 20-30%
[14]; Day 1
  AUC0-24: 611 to 894 ng·h/mL
  Cmax: 202 to 280 ng/mL
[14]; Day 2
  AUC0-24: 735 to 1081 ng·h/mL
  Cmax: 159 to 315 ng/mL
HMEC-1 cells
  Emax (% inhibition): 99 ± 0.10 % inhibition
HMEC-1 cells; Homo sapiens, medium pre-supplemented with 1 μM Compound A
  GI50: 0.46 ± 0.23 ng/mL (≈ 0.539 nM)
